Experimental data published in patent US20160193206A1, “BET-PROTEIN-INHIBITING DIHYDROPYRIDOPYRAZINONES” (BAYER PHARMA AKTIENGESELLSCHAFT, priority 2012, published 2016).

Assays:
[1] = target: T1, BRD4 bromo domain 2 [BRD4(2)] (Homo sapiens, UniProt O60885); assay: BRD4(2)/acetylated peptide H4 binding assay (TR-FRET); details: inhibition of interaction between His6-tagged BRD4(2) (amino acids 357-445) and acetylated histone H4 peptide
T1 construct: N-terminally His6-tagged BRD4(2) (amino acids 357-445); made in house; host or cells: E. coli
In short: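 TR-FRET displacement of biotinylated tetra-acetylated H4 peptide from His6-BRD4(2) (aa 357-445, E. coli-expressed), 100 nM final, in HEPES pH 7.5 buffer; 11 compound concentrations 0.1 nM-20 μM, 10 min preincubation, then 1 h 22 °C plus ≥3 h 4 °C. 665/620 ratio read; IC50 by 4-parameter fit.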

[2] = target: T2, BRD4 bromo domain 1 [BRD4(1)] (Homo sapiens, UniProt O60885); assay: BRD4(1)/acetylated peptide H4 binding assay (TR-FRET); details: inhibition of interaction between His6-tagged BRD4(1) (amino acids 67-152) and acetylated histone H4 peptide
T2 construct: N-terminally His6-tagged BRD4(1) (amino acids 67-152); made in house; host or cells: E. coli
In short: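 TR-FRET measured displacement of a biotinylated tetra-acetylated H4 peptide from His6-BRD4(1) (aa 67-152, E. coli-expressed, typically 10 nM) in HEPES pH 7.5 buffer. Compounds were tested at 11 concentrations (0.1 nM–20 μM), with 10 min preincubation, then 1 h at 22 °C and ≥3 h at 4 °C. The 665/620 nm ratio gave IC50 by 4-parameter fit.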

[3] = tested on: MOLM-13 cell line; assay: MOLM-13 cell proliferation assay (alamarBlue); type: cell-based; details: Homo sapiens, inhibition of proliferation of MOLM-13 cells (acute myeloid leukaemia), 96 hours incubation
Protocol: In accordance with the invention, the substances were tested for their ability to inhibit the proliferation of the MOLM-13 cell linie (Deutsche Sammlung für Mikroorganismen und Zellkulturen [German Collection of Microorganisms and Cell Cultures], ACC 554; acute myeloid leukaemia). Cell viability was determined by means of the alamarBlue® reagent (Invitrogen) in a Victor X3 Multilabel Reader (Perkin Elmer). The excitation wavelength was 530 nm and the emission wavelength […].
The MOLM-13 cells were sown at a density of 4000 cells/well in 100 μl of growth medium on 96-well microtitre plates. After overnight incubation at 37° C., the fluorescence values were determined (CI values). The plates were then treated with various substance dilutions and incubated at 37° C. for 96 hours. Subsequently, the fluorescence values were determined (CO values). For the data analysis, the CI values were subtracted from the CO values and the results were compared between cells which had been treated with various dilutions of the substance or only with buffer solution. The IC50 values (substance concentration needed for 50% inhibition of cell proliferation) were calculated therefrom.

Compound	IC50 [1]	IC50 [2]	IC50 [3]
CC(C)N1c2nc(Nc3ccc(C(=O)N4CC5(CCS5(=O)=O)C4)cc3)ccc2N(C)C(=O)[C@H]1C [Example 9, (3R)-6-({4-[(1,1-Dioxido-1-thia-6-azaspiro[3.3]hept-6-yl)carbonyl]phenyl}amino)-4-isopropyl-1,3-dimethyl-3,4-dihydropyrido[2,3-b]pyrazin-2(1H)-one]	0.13 µM	0.15 µM	0.698 µM
COc1cc(C(=O)N2CC3(CCS3(=O)=O)C2)ccc1Nc1ccc2c(n1)N(C1CCCC1)[C@H](C)C(=O)N2C [Example 10, (3R)-4-Cyclopentyl-6-({4-[(1,1-dioxido-1-thia-6-azaspiro[3.3]hept-6-yl)carbonyl]-2-methoxyphenyl}amino)-1,3-dimethyl-3,4-dihydropyrido[2,3-b]pyrazin-2(1H)-one]	0.23 µM	0.165 µM	0.623 µM
C[C@@H]1C(=O)N(C)c2ccc(Nc3ccc(C(=O)NC4CCN(C)CC4)cc3)nc2N1C1CCCC1 [Example 11, 4-{[(3R)-4-Cyclopentyl-1,3-dimethyl-2-oxo-1,2,3,4-tetrahydropyrido[2,3-b]pyrazin-6-yl]amino}-N-(1-methylpiperidin-4-yl)benzamide]	0.083 µM	0.063 µM	0.444 µM
COc1cc(C(=O)NC2CCN(C)CC2)ccc1Nc1ccc2c(n1)N(C1CCOCC1)[C@H](C)C(=O)N2C [Example 13, 4-{[(3R)-1,3-Dimethyl-2-oxo-4-(tetrahydro-2H-pyran-4-yl)-1,2,3,4-tetrahydropyrido[2,3-b]pyrazin-6-yl]amino}-3-methoxy-N-(1-methylpiperidin-4-yl)benzamide]	0.113 µM	0.114 µM	0.212 µM
COc1cc(C(=O)N[C@H]2CC[C@H](N3CCN(CC4CC4)CC3)CC2)ccc1Nc1ccc2c(n1)N(C1CCOCC1)[C@H](C)C(=O)N2C [Example 14, N-{trans-4-[4-(Cyclopropylmethyl)piperazin-1-yl]cyclohexyl}-4-{[(3R)-1,3-dimethyl-2-oxo-4-(tetrahydro-2H-pyran-4-yl)-1,2,3,4-tetrahydropyrido[2,3-b]pyrazin-6-yl]amino}-3-methoxybenzamide]	0.108 µM	0.149 µM	0.233 µM
C[C@@H]1C(=O)N(C)c2ccc(Nc3ccc(S(=O)(=O)N[C@H]4CC[C@H](N5CCN(CC6CC6)CC5)CC4)cc3)nc2N1C1CCOCC1 [Example 15, N-{trans-4-[4-(Cyclopropylmethyl)piperazin-1-yl]cyclohexyl}-4-{[(3R)-1,3-dimethyl-2-oxo-4-(tetrahydro-2H-pyran-4-yl)-1,2,3,4-tetrahydropyrido[2,3-b]pyrazin-6-yl]amino}benzenesulphonamide]	0.051 µM	0.237 µM	0.062 µM
C[C@@H]1C(=O)N(C)c2ccc(Nc3ccc(S(=O)(=O)N4CCOCC4)cc3)nc2N1C1CCOCC1 [Example 18, (3R)-1,3-dimethyl-6-{[4-(morpholin-4-ylsulphonyl)phenyl]amino}-4-(tetrahydro-2H-pyran-4-yl)-3,4-dihydropyrido[2,3-b]pyrazin-2(1H)-one]	0.04 µM	0.056 µM	0.305 µM
C[C@@H]1C(=O)N(C)c2ccc(Nc3ccc(S(=O)(=O)N4CCN(C)CC4)cc3)nc2N1C1CCOCC1 [Example 20, (3R)-1,3-dimethyl-6-({4-[(4-methylpiperazin-1-yl)sulphonyl]phenyl}amino)-4-(tetrahydro-2H-pyran-4-yl)-3,4-dihydropyrido[2,3-b]pyrazin-2(1H)-one]	0.096 µM	0.154 µM	0.445 µM
C[C@@H]1C(=O)N(C)c2ccc(Nc3ccc(S(=O)(=O)N4CCN(C)CC4)cc3F)nc2N1C1CCOCC1 [Example 21, (3R)-6-({2-fluoro-4-[(4-methylpiperazin-1-yl)sulphonyl]phenyl}amino)-1,3-dimethyl-4-(tetrahydro-2H-pyran-4-yl)-3,4-dihydropyrido[2,3-b]pyrazin-2(1H)-one]	0.087 µM	0.106 µM	0.397 µM
C[C@@H]1C(=O)N(C)c2ccc(Nc3ccc(S(=O)(=O)NC4CCN(C)CC4)cc3)nc2N1C1CCOCC1 [Example 22, 4-{[(3R)-1,3-dimethyl-2-oxo-4-(tetrahydro-2H-pyran-4-yl)-1,2,3,4-tetrahydropyrido[2,3-b]pyrazin-6-yl]amino}-N-(1-methylpiperidin-4-yl)benzenesulphonamide]	0.053 µM	0.052 µM	0.203 µM

Results, then the molecule that gave them:

IC50 [1]	IC50 [2]	IC50 [3]	Compound
0.065 µM	0.046 µM	0.358 µM	C[C@@H]1C(=O)N(C)c2ccc(Nc3ccc(S(=O)(=O)NCCN4CCN(C)CC4)cc3)nc2N1C1CCOCC1 [Example 23, 4-{[(3R)-1,3-dimethyl-2-oxo-4-(tetrahydro-2H-pyran-4-yl)-1,2,3,4-tetrahydropyrido[2,3-b]pyrazin-6-yl]amino}-N-[2-(4-methylpiperazin-1-yl)ethyl]benzene-sulponamide]
0.076 µM	0.081 µM	0.554 µM	C[C@@H]1C(=O)N(C)c2ccc(Nc3ccc(S(=O)(=O)NCCN(C)C)cc3)nc2N1C1CCOCC1 [Example 24, N-[2-(dimethylamino)ethyl]-4-{[(3R)-1,3-dimethyl-2-oxo-4-(tetrahydro-2H-pyran-4-yl)-1,2,3,4-tetrahydropyrido[2,3-b]pyrazin-6-yl]amino}benzene-sulphonamide]
0.094 µM	0.05 µM	0.388 µM	C[C@@H]1C(=O)N(C)c2ccc(Nc3ccc(S(=O)(=O)NCc4ccccn4)cc3)nc2N1C1CCOCC1 [Example 25, 4-{[(3R)-1,3-dimethyl-2-oxo-4-(tetrahydro-2H-pyran-4-yl)-1,2,3,4-tetrahydropyrido[2,3-b]pyrazin-6-yl]amino}-N-(pyridin-2-ylmethyl)benzene-sulphonamide]
0.067 µM	0.07 µM	0.296 µM	COc1cc(Nc2ccc3c(n2)N(C2CCOCC2)[C@H](C)C(=O)N3C)ccc1S(=O)(=O)N1CCN(C)CC1 [Example 26, (3R)-6-({3-methoxy-4-[(4-methylpiperazin-1-yl)sulphonyl]phenyl}amino)-1,3-dimethyl-4-(tetrahydro-2H-pyran-4-yl)-3,4-dihydropyrido[2,3-b]pyrazin-2(1H)-one]
0.038 µM	0.032 µM	0.202 µM	C[C@@H]1C(=O)N(C)c2ccc(Nc3ccc(S(=O)(=O)N(C)C)cc3)nc2N1C1CCOCC1 [Example 27, 4-{[(3R)-1,3-dimethyl-2-oxo-4-(tetrahydro-2H-pyran-4-yl)-1,2,3,4-tetrahydropyrido[2,3-b]pyrazin-6-yl]amino}-N,N-dimethylbenzene-sulphonamide]
0.14 µM	0.119 µM	0.293 µM	C[C@@H]1C(=O)N(C)c2ccc(Nc3ccc(C(=O)NC4CN(C)C4)cc3)nc2N1C1CCCCC1 [Example 30, 4-{[(3R)-4-Cyclohexyl-1,3-dimethyl-2-oxo-1,2,3,4-tetrahydropyrido[2,3-b]pyrazin-6-yl]amino}-N-(1-methylazetidin-3-yl)benzamide]
0.104 µM	0.256 µM	0.338 µM	COc1cc(C(=O)N[C@H]2CC[C@H](N3CCN(CC4CC4)CC3)CC2)ccc1Nc1ccc2c(n1)N(Cc1ccccc1)[C@H](C)C(=O)N2C [Example 34, 4-{[(3R)-4-Benzyl-1,3-dimethyl-2-oxo-1,2,3,4-tetrahydropyrido[2,3-b]pyrazin-6-yl]amino}-N-{trans-4-[4-(cyclopropylmethyl)piperazin-1-yl]cyclohexyl}-3-methoxybenzamide]
0.306 µM	0.347 µM	0.859 µM	Cc1cc(C(=O)N[C@H]2CC[C@H](N3CCN(CC4CC4)CC3)CC2)ccc1Nc1ccc2c(n1)N(C1CCOCC1)[C@H](C)C(=O)N2C [Example 37, N-{trans-4-[4-(Cyclopropylmethyl)piperazin-1-yl]cyclohexyl}-4-{[(3R)-1,3-dimethyl-2-oxo-4-(tetrahydro-2H-pyran-4-yl)-1,2,3,4-tetrahydropyrido[2,3-b]pyrazin-6-yl]amino}-3-methylbenzamide]
0.079 µM	0.194 µM	0.051 µM	COc1cc(C(=O)NC2CCC(=O)CC2)ccc1Nc1ccc2c(n1)N(C1CCOCC1)[C@H](C)C(=O)N2C [Example 38, 4-{[(3R)-1,3-Dimethyl-2-oxo-4-(tetrahydro-2H-pyran-4-yl)-1,2,3,4-tetrahydropyrido[2,3-b]pyrazin-6-yl]amino}-3-methoxy-N-(4-oxocyclohexyl)benzamide]
